In US4200646A, “Method of controlling the growth of microorganisms using nitroalkyl thiocyanates” (International Minerals & Chemical Corporation, priority 1979, dated 1980):
In brackets after ≈: the same amount, converted by molar mass. Entries after “also recorded” stand apart in the source; their conditions may differ. Like-named read-outs stand apart in the source and are kept apart here.

Tests used:
microorganisms = experiment: Control of growth of microorganisms in metal working fluids; conditions: 500-1000 ppm or more
bacteria and fungi = experiment: Antimicrobial activity against bacteria and fungi; assay type: cell-based
Streptococcus fecalis = experiment: Tube dilution method, minimum inhibitory concentration; assay type: cell-based
Pseudomonas aeruginosa = experiment: as above; assay type: cell-based
[1] = tested on: Streptococcus hemolyticus; experiment: as above; assay type: cell-based; conditions: Streptococcus pyogenes
Candida albicans = experiment: as above; assay type: cell-based
Escherichia coli = experiment: as above; assay type: cell-based
Penicillium sp. = experiment: as above; assay type: cell-based
Shigella dysenteriae = experiment: as above; assay type: cell-based; conditions: pH 7.3, read-out: Inhibitory Concn (minimum inhibitory concentration)
Mycobacterium ranae = experiment: as above; assay type: cell-based
Aspergillus niger = experiment: as above; assay type: cell-based
Staphyloccus aureus = experiment: as above; assay type: cell-based
[2] = LD50 in mice by oral administration; conditions: mouse, in vivo
Protocol: The LD50 in mice by oral administration was determined to be 500 mg/kg.

[3] = tested on: Pasteurella pseudotuberculosis; experiment: microbe, parasite or virus in culture; assay type: cell-based; conditions: Yersinia pseudotuberculosis, pH 7.3, read-out: Inhibitory Concn (minimum inhibitory concentration)
Aspergillus fumigatus = experiment: Tube dilution method, minimum inhibitory concentration; assay type: cell-based
microbial contamination = experiment: Microbial contamination of cutting oil emulsion in use; conditions: emulsion with P-2216 0.1, light mineral oil 20, water 76.9, emulsifying agent 3 parts
Protocol: A cutting oil emulsion is prepared according to the following formula: […]
Light mineral oil 20 parts

[4] = pH 7.3, read-out: Inhibitory Concn (minimum inhibitory concentration)
[5] = pH 5.6, read-out: Inhibitory Concn (minimum inhibitory concentration)
[6] = trypticase soya broth pH 7.3, range between highest concentration permitting growth and lowest preventing growth, read-out: Inhibitory Concn (minimum inhibitory concentration)
[7] = Sabouraud broth pH 5.6, range between highest concentration permitting growth and lowest preventing growth, read-out: Inhibitory Concn (minimum inhibitory concentration)

Compound: CC(SC#N)[N+](=O)[O-] (centres unmarked) [1-nitroethyl thiocyanate]
- control of growth of microorganisms in metal working fluids (microorganisms): controls the growth of microorganisms for a prolonged period
- antimicrobial activity (in words) (bacteria and fungi): effective against a wide spectrum of bacteria and fungi

Compound: CCC(SC#N)[N+](=O)[O-] (centres unmarked) [1-nitropropyl thiocyanate]
- control of growth of microorganisms in metal working fluids (microorganisms): controls the growth of microorganisms for a prolonged period
- antimicrobial activity (in words) (bacteria and fungi): effective against a wide spectrum of bacteria and fungi

Compound: CC(C)(SC#N)[N+](=O)[O-] [Example P-2216, 1-methyl-1-nitroethyl thiocyanate]
- MIC (Streptococcus fecalis; Streptococcus, pH 7.3, read-out: Inhibitory Concn (minimum inhibitory concentration)): 50 to 100 µg/mL (≈ 342 to 684 µM)
- MIC (Pseudomonas aeruginosa; [4]): 10 to 50 µg/mL (≈ 68.4 to 342 µM)
- MIC [1, 4]: 50 to 100 µg/mL (≈ 342 to 684 µM)
- MIC (Candida albicans; [5]): 1 to 10 µg/mL (≈ 6.84 to 68.4 µM)
- MIC (Escherichia coli; [4]): 10 to 50 µg/mL (≈ 68.4 to 342 µM)
- MIC (Penicillium sp.; Penicillium, pH 5.6, read-out: Inhibitory Concn (minimum inhibitory concentration)): 10 to 50 µg/mL (≈ 68.4 to 342 µM)
- MIC (Shigella dysenteriae): 10 to 50 µg/mL (≈ 68.4 to 342 µM)
- MIC (Mycobacterium ranae; Mycobacterium, pH 7.3, read-out: Inhibitory Concn (minimum inhibitory concentration)): 1 to 10 µg/mL (≈ 6.84 to 68.4 µM)
- MIC (Aspergillus niger; [5]): 10 to 50 µg/mL (≈ 68.4 to 342 µM)
- MIC (Staphyloccus aureus; [4]): 1 to 10 µg/mL (≈ 6.84 to 68.4 µM)
- LD50 ([2]; mice, oral administration, read-out: LD50): 500 mg/kg
- MIC [3]: 1 to 10 µg/mL (≈ 6.84 to 68.4 µM)
- MIC (Aspergillus fumigatus; [5]): 1 to 10 µg/mL (≈ 6.84 to 68.4 µM)
- freedom from microbial contamination when used as a cutting oil (microbial contamination): remains free from microbial contamination for a long period of time

Compound: N#CSC1([N+](=O)[O-])CCCCC1 [Example P-2217, 1-nitrocyclohexyl thiocyanate]
- MIC (Streptococcus fecalis; Streptococcus fecalis, trypticase soya broth pH 7.3, range between highest concentration permitting growth and lowest preventing growth, read-out: Inhibitory Concn (minimum inhibitory concentration)): 50 to 100 µg/mL (≈ 268 to 537 µM)
- MIC (Pseudomonas aeruginosa; [6]): 10 to 50 µg/mL (≈ 53.7 to 268 µM)
- MIC ([1]; Streptococcus hemolyticus, trypticase soya broth pH 7.3, range between highest concentration permitting growth and lowest preventing growth, read-out: Inhibitory Concn (minimum inhibitory concentration)): 50 to 100 µg/mL (≈ 268 to 537 µM)
- control of growth of microorganisms in metal working fluids (microorganisms): controls the growth of microorganisms for a prolonged period
- MIC (Candida albicans; [7]): 10 to 50 µg/mL (≈ 53.7 to 268 µM)
- MIC (Escherichia coli; [6]): 10 to 50 µg/mL (≈ 53.7 to 268 µM)
- MIC (Penicillium sp.; Penicillium sp., Sabouraud broth pH 5.6, range between highest concentration permitting growth and lowest preventing growth, read-out: Inhibitory Concn (minimum inhibitory concentration)): 10 to 50 µg/mL (≈ 53.7 to 268 µM)
- MIC (Shigella dysenteriae): 50 to 100 µg/mL (≈ 268 to 537 µM)
- MIC (Mycobacterium ranae; Mycobacterium ranae, trypticase soya broth pH 7.3, range between highest concentration permitting growth and lowest preventing growth, read-out: Inhibitory Concn (minimum inhibitory concentration)): 1 to 10 µg/mL (≈ 5.37 to 53.7 µM)
- MIC (Aspergillus niger; [7]): 10 to 50 µg/mL (≈ 53.7 to 268 µM)
- MIC (Staphyloccus aureus; Staphyloccus aureus, trypticase soya broth pH 7.3, range between highest concentration permitting growth and lowest preventing growth, read-out: Inhibitory Concn (minimum inhibitory concentration)): 1 to 10 µg/mL (≈ 5.37 to 53.7 µM)
- LD50 ([2]; oral, species not restated in Example 5 (mice in Example 1), read-out: oral LD50): 150 mg/kg
- MIC [3]: 10 to 50 µg/mL (≈ 53.7 to 268 µM)
- MIC (Aspergillus fumigatus; [7]): 1 to 10 µg/mL (≈ 5.37 to 53.7 µM)
- antimicrobial activity (in words) (bacteria and fungi): effective against both bacteria and fungi; also recorded: effective against a wide spectrum of bacteria and fungi

Compound: N#CSC[N+](=O)[O-] [nitromethyl thiocyanate]
- control of growth of microorganisms in metal working fluids (microorganisms): controls the growth of microorganisms for a prolonged period
- antimicrobial activity (in words) (bacteria and fungi): effective against a wide spectrum of bacteria and fungi
